{
  "source": "paper PMC6185904",
  "about": "(Nature Communications, 2018)",
  "key": {"[1]": {"target": "T1, human NHA2 (Homo sapiens, UniProt Q86UD5)", "T1 construct": "gene SLC9B2; GFP-8His fusion (pDDGFP-2), expressed in S. cerevisiae FGY217, purified in DDM", "T1 sequence (Q86UD5 1-537)": "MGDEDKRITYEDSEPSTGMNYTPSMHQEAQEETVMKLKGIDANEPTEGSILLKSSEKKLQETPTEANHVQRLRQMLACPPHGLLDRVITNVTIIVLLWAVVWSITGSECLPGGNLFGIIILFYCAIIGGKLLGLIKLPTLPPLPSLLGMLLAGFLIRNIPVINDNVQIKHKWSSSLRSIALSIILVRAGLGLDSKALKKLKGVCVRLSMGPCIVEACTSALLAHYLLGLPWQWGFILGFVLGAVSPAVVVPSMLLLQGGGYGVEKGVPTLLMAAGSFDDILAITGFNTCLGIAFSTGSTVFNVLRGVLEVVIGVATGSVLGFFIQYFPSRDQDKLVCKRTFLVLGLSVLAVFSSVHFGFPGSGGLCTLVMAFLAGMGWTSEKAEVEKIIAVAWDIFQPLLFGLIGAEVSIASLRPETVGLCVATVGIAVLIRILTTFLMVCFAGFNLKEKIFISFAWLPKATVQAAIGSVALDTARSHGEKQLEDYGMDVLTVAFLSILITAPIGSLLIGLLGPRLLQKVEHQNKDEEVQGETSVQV", "experiment": "GFP-TS lipid screen, purified GFP fusion", "type": "binding", "settings": "3 mg/mL lipid, heated at apparent Tm + 5 °C, pH 7.5, 150 mM NaCl, DDM plus 1% beta-OG"}, "[2]": {"target": "T2, putative Zea mays CMP–sialic acid transporter (Z. mays CMP–Sia) (Zea mays, UniProt B4FZ94)", "T2 construct": "gene ZEAMMB73_Zm00001d046060; full-length synthesized clone, GFP-8His fusion (pDDGFP-2), expressed in S. cerevisiae FGY217; DDM-solubilized membranes or purified", "T2 sequence (B4FZ94 1-322)": "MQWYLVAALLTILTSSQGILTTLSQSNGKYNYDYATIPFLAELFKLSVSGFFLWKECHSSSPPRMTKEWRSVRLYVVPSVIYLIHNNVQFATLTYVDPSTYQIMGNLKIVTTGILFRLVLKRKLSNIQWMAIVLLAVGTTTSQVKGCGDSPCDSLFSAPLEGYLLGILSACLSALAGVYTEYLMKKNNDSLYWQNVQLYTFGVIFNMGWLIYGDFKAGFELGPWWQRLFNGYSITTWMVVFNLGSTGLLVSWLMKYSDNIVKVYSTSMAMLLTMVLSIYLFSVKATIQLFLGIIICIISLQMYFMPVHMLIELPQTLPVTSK", "experiment": "GFP-TS thermostabilization, DDM-solubilized membranes", "type": "binding", "settings": "5 mM ligand, heated at 54 °C, pH 7.5, 150 mM NaCl, DDM plus 1% beta-OG"}, "[3]": {"target": "T3, human CMP–sialic acid transporter SLC35A1 (human CMP–Sia) (Homo sapiens, UniProt P78382)", "T3 construct": "full-length, GFP-8His fusion (pDDGFP-2), expressed in S. cerevisiae FGY217; DDM-solubilized membranes or purified", "T3 sequence (P78382 1-337)": "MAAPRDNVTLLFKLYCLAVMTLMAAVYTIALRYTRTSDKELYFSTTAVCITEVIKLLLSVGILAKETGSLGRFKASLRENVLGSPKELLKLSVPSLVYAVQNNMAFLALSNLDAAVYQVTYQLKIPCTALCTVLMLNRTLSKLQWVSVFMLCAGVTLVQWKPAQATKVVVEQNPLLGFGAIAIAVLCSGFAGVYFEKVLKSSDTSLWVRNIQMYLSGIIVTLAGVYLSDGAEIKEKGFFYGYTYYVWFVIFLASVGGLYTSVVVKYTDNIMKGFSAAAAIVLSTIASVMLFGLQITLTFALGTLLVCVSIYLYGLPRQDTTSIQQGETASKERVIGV", "experiment": "GFP-TS thermostabilization, DDM-solubilized membranes", "type": "binding", "settings": "5 mM ligand, heated at 42 °C, pH 7.5, 150 mM NaCl, DDM plus 1% beta-OG"}, "[4]": {"target": "T4, NhaA (sodium/proton antiporter), dimeric NhaA-GFP (Escherichia coli, UniProt P13738)", "T4 construct": "full-length, C-terminal GFP-8His fusion (pWaldo GFPd), expressed in E. coli Lemo21(DE3), purified in DDM; homodimer", "T4 sequence (P13738 1-388)": "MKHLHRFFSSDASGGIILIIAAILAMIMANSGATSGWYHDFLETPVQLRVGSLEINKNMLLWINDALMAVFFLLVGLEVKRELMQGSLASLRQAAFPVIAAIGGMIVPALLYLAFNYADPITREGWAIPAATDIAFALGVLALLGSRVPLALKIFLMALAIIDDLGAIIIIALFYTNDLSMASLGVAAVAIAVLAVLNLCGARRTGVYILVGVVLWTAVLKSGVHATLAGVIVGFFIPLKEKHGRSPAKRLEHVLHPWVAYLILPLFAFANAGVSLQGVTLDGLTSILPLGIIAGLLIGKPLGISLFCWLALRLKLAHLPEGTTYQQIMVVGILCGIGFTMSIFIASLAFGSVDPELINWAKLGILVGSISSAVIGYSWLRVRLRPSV", "experiment": "FSEC-TS titration of dimer stabilization, nonlinear regression", "type": "binding", "settings": "pH 7.5, 150 mM NaCl, 0.03% DDM plus 1% beta-OG, heated at 47 °C; 19 CL concentrations; dimer interface site; read-out: CL dependent oligomerization concentration (midpoint)"}, "[5]": {"target": "T4, NhaA (sodium/proton antiporter), dimeric NhaA-GFP", "experiment": "FSEC-TS thermal shift, purified NhaA-GFP", "type": "binding", "settings": "purified in DDM; dimer"}, "[6]": {"target": "T3, human CMP–sialic acid transporter SLC35A1 (human CMP–Sia)", "experiment": "GFP-TS titration, one-site fit, DDM-solubilized membranes (also ITC on purified protein)", "from_the_text": "GFP-TS titration, one-site fit, DDM-solubilized membranes (also ITC on purified protein) on human CMP–sialic acid transporter SLC35A1 (human CMP–Sia) | we used the GFP-TS to determine CMP binding affinities (Kd) for the plant and human"}},
  "data": [
    {"smiles": "CCCCCCCC/C=C\\CCCCCCCC(=O)OC[C@H](COP(=O)(O)OCC(O)CO)OC(=O)CCCCCCC/C=C\\CCCCCCCC", "note": "(stereo partly drawn) [DOPG]", "values": [
      {"measurement": "supernatant fluorescence after heating", "setting": "[1]", "value": "human NHA2, where the addition of PG was clearly stabilizing"}
    ]},
    {"smiles": "CC(=O)N[C@H]1[C@H]([C@H](O)[C@H](O)CO)O[C@](OP(=O)(O)OC[C@H]2O[C@@H](n3ccc(N)nc3=O)[C@H](O)[C@@H]2O)(C(=O)O)C[C@@H]1O", "note": "[CMP–sialic acid]", "values": [
      {"measurement": "supernatant fluorescence after heating", "setting": "[2]", "value": "higher thermostablization for CMP–sialic acid as compared to the addition of sialic acid only"},
      {"measurement": "supernatant fluorescence after heating", "setting": "[3]", "value": "almost identical stabilization profile for substrates was observed for the human CMP–sialic acid transporter"}
    ]},
    {"smiles": "CCCCCCCC/C=C\\CCCCCCCC(=O)OC[C@H](COP(=O)(O)OCC(O)COP(=O)(O)OC[C@@H](COC(=O)CCCCCCC/C=C\\CCCCCCCC)OC(=O)CCCCCCC/C=C\\CCCCCCCC)OC(=O)CCCCCCC/C=C\\CCCCCCCC", "note": "(stereo partly drawn) [CL, cardiolipin (18:1)]", "values": [
      {"measurement": "EC50", "setting": "[4]", "value": 1400, "unit": "µM"},
      {"measurement": "apparent Tm without to with cardiolipin", "setting": "[5]", "value": "42 to 53", "unit": "°C"}
    ]},
    {"smiles": "Nc1ccn([C@@H]2O[C@H](COP(=O)(O)O)[C@@H](O)[C@H]2O)c(=O)n1", "note": "[CMP]", "values": [
      {"measurement": "Kd", "setting": "[6]", "value": "19.5 ± 3.8", "unit": "µM"}
    ]}
  ]
}
